pIC50: −log10 of the molar value.
What was measured:
[1] = test system: 60 DUBs in HEK293AD lysate; assay: In situ DUB profiling: competitive ABPP with Bio-Ub-PA/Bio-Ub-VME and quantitative MS; type: binding, human; conditions: in vitro and activity-based proteomic profiling
Experimental: (§1) DUB profiling was performed using conditions similar to those in Lawson et al[63]. HEK 293AD cells were lysed using target engagement lysis buffer (50 mM Tris pH 8.0, 150 mM NaCl, 5 mM MgCl2, 0.5 mM EDTA, 0.5% NP-40, 10% glycerol, 1 mM TCEP, protease and phosphatase inhibitors), and the lysate was cleared by centrifugation. Samples were diluted to 2 mg/mL, and 1 mL lysate was incubated with the indicated concentration of XL177A for 5 hours at RT. Excess inhibitor was removed using a 30 K Amicon spin filter, then the resulting lysate was incubated with 1 μM each of Biotin-Ub-PA and Biotin-Ub-VME for 90 minutes at RT. SDS was added to a final concentration of 1.2%, and samples were heated to 80 °C for 5 minutes. After cooling to RT, 1X PBS was added to dilute the final SDS concentration to 0.2%. 100 μL streptavidin agarose slurry was added to each sample, followed by incubation at RT for 3 hours. After streptavidin enrichment, samples were washed vigorously (2×0.2% SDS, 3x PBS, 3x ddH2O). […]
(§2) To remove rapigest, recovered supernatants were acidified with 10% TFA, incubated at 37 °C for 45 minutes, and centrifuged at 14,000 rpm for 15 minutes at 4 °C. […] Eluted peptides were then analyzed by nanoflow LC-MS/MS as described[64] with a NanoAcquity UPLC system (Waters, Milford, MA) interfaced to a QExactive HF mass spectrometer (Thermofisher Scientific, San Jose, CA). […]

[2] = target: T1, 60 DUBs in HEK293AD lysate (Homo sapiens, UniProt Q93009); assay: as above; type: binding; conditions: HEK293 crude cell extract, 5 hours pre-incubation
T1 construct: endogenous in cells; host or cells: HEK 293AD lysate
T1 sequence (Q93009 whole entry): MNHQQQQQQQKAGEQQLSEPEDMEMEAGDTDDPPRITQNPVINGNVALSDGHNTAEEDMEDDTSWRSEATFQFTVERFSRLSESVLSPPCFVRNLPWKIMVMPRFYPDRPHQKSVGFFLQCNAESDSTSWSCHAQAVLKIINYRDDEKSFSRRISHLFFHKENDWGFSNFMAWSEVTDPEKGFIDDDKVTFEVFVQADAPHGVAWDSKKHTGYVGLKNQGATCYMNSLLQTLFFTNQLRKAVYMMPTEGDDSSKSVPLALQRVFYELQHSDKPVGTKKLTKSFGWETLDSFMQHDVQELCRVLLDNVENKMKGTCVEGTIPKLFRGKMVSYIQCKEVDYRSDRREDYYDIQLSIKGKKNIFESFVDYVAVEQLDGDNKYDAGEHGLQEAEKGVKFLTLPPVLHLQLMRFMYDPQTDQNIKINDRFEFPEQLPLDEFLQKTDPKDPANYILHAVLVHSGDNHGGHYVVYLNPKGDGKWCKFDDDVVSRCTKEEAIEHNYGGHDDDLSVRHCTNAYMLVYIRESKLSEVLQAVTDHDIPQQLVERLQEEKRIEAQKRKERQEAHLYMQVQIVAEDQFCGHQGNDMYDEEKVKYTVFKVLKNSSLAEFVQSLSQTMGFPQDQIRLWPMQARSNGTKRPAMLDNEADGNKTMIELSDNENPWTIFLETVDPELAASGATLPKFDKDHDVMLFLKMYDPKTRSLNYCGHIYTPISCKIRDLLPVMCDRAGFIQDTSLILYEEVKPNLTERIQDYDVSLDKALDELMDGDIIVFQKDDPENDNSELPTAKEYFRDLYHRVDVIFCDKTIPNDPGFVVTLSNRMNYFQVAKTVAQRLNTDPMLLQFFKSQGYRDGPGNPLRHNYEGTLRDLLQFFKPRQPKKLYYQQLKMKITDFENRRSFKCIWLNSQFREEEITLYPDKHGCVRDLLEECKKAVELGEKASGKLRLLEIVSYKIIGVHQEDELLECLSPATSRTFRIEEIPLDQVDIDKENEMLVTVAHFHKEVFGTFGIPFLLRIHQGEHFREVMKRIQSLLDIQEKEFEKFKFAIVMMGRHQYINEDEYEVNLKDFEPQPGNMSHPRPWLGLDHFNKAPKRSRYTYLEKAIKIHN
Experimental: as §1, §2

USP7 [3] = target: T2, USP7 (Homo sapiens, UniProt Q93009); assay: Live cell treatment and competitive ABPP with HA-Ub-VS; type: cell-based; parameters: endogenous in cells; host or cells: MCF7; conditions: live cell treatment, 6 hr; read-out: IC50, USP7 inhibition in cyto
T2 sequence (Q93009 whole entry): as above
Experimental: HA-Ub-VS experiments were performed as previously described in Lamberto et al[29]. Briefly, target engagement lysis buffer (50 mM Tris pH 8.0, 150 mM NaCl, 5 mM MgCl2, 0.5 mM EDTA, 0.5% NP-40, 10% glycerol, 1 mM TCEP, protease and phosphatase inhibitors) was added to cell pellets on ice. Lysate was cleared by centrifugation and diluted to 1.67 mg/mL. Where indicated, 30 μL lysate was then incubated with inhibitors or DMSO for the indicated timepoints. 1 μM HA-Ub-VS was then added to the lysate and incubated at RT for the indicated time points. Labeling reactions were quenched with 4x LDS sample buffer (Thermo Fisher B0007) supplemented with 10% BME, vortexed vigorously, and heated to 95 C for 5 minutes. Samples were resolved by SDS-PAGE and analyzed by Western blot with the indicated antibodies.

USP7 [4] = target: T2, USP7; assay: XL177A-DTB chemoproteomic profiling with XL177A competition, USP7; type: binding; parameters: endogenous in cells; host or cells: HEK 293AD lysate
Experimental: HEK 293AD cells were lysed as described above, and the lysate was cleared by centrifugation. […] SDS was added to a final concentration of 1.2% (27.2 μL of a 10% stock), and denatured by heating to 80 °C for 5 minutes. After cooling to RT, 1125 μL 1X PBS was added to dilute the final SDS concentration to 0.2%. 50 μL streptavidin agarose slurry was added to each sample, followed by incubation at RT for 3 hours. After streptavidin enrichment, samples were washed vigorously (2×0.2% SDS, 3x PBS, 3x ddH2O). After the final wash, all supernatant was removed using a flat-bottom tip, and the resin was flash frozen and stored at −80 °C until workup for TMT labeling.
To remove rapigest, recovered supernatants were acidified with 10% TFA, incubated at 37 °C for 45 minutes, and centrifuged at 14,000 rpm for 15 minutes at 4 °C. Peptides were then desalted by C18, and dried by vacuum centrifugation. Dried peptides were reconstituted in 50 mM pH8.0 TEAB and labeled with TMT reagent at RT for 1 hour. TMT reactions were pooled and treated with hydroxylamine according to the manufacturer’s instructions. Peptide mixtures were then dried, reconstituted in 50 mM ammonium bicarbonate and desalted by SP3[53]. Eluted peptides were then analyzed by nanoflow LC-MS/MS as described[64] with a NanoAcquity UPLC system (Waters, Milford, MA) interfaced to a QExactive HF mass spectrometer (Thermofisher Scientific, San Jose, CA). TMT labeled peptides were injected onto a precolumn (4 cm POROS 10R2, Applied Biosystems, Framingham, MA), resolved on an analytical column (30 µm I.D. × 50 cm packed with 5 µm Monitor C18) and introduced to the mass spectrometer by ESI (spray voltage = 3.5 kV, flow rate ~30 nL/min). The mass spectrometer was operated in data dependent mode such that the 15 most abundant ions in each MS scan (m/z 300–2000, 120 K resolution, target = 3E6, lock mass for 445.120025 enabled) were subjected to MS/MS (m/z 100–2000, 30 K resolution, target = 1E5, max fill time = 100 ms). Dynamic exclusion was selected with a repeat count of 1 and an exclusion time of 30 seconds. MS/MS data was extracted to.mgf using mulitplierz scripts[54],[55] and searched against a forward-reverse human NCBI refseq database using Mascot version 2.6. Search parameters specified fixed carbamidomethylation of cysteine, fixed N-terminal and lysine TMT labelling, and variable oxidation (methionine). Additional multiplierz scripts were used to filter results to 1% FDR and derive protein-level aggregate reporter ion intensities using peptides mapping uniquely into the genome.

p53 target genes = assay: Quantitative real-time PCR of p53 target genes in MCF7 cells; type: cell-based; conditions: 1 μM, 24 hours
Experimental: After cell treatment under the indicated conditions, total cellular RNA was purified using a Qiagen RNEasy kit. 1 μg of RNA was then converted to cDNA using SuperScript III First-Strand Synthesis (Invitrogen). cDNA from each sample was then combined with the indicated TaqMan probe and 2x MasterMix in a 96-well Fast RT-PCR plate (Invitrogen). qPCR was performed on an Invitrogen 7500 Fast qPCR instrument and gene expression was calculated using the 2^-∆∆Ct method on Graphpad Prism.

[5] = USP7 reporter ion intensity, XL177A-DTB pulldown, HEK293AD lysate pre-treated 100nM XL177A
[6] = USP7 reporter ion intensity, XL177A-DTB pulldown, HEK293AD lysate pre-treated 1uM XL177A
[7] = USP7 reporter ion intensity, XL177A-DTB pulldown, HEK293AD lysate pre-treated 10uM XL177A
[8] = USP7 reporter ion intensity, average of Run 1 and Run 2, 100nM XL177A
[9] = USP7 reporter ion intensity, average of Run 1 and Run 2, 1uM XL177A
[10] = USP7 reporter ion intensity, average of Run 1 and Run 2, 10uM XL177A

Compound: CN1CCN(CCC(=O)Nc2ccc3c(=O)n(CC4(O)CCN(C(=O)[C@@H](CCCNC(=O)c5ccc6c(Cl)c7c(nc6c5)CCCC7)Cc5ccccc5)CC4)cnc3c2)CC1 [XL177A]
- selectivity for USP7 over closely related DUBs [1]: > 10 fold
- USP7 labeling by DUB ABPs [2]: significantly blocked USP7 labeling
- pIC50 (USP7 [3]): 7.41
- inhibition of XL177A-DTB labeling (USP7 [4]; HEK293 lysate, XL177A 1 or 10 μM, 5 hours, only USP7 of 566 proteins): > 3 fold
- Run 1 100nM 1 (USP7 [4]; [5]): 31732106
- Run 1 100nM 2 (USP7 [4]; [5]): 30184262
- Run 1 100nM 3 (USP7 [4]; [5]): 32232481
- Run 2 100nM 1 (USP7 [4]; [5]): 31803721
- Run 2 100nM 2 (USP7 [4]; [5]): 30185364
- Run 2 100nM 3 (USP7 [4]; [5]): 32073312
- Run 1 1uM 1 (USP7 [4]; [6]): 8663971
- Run 1 1uM 2 (USP7 [4]; [6]): 7593596
- Run 1 1uM 3 (USP7 [4]; [6]): 8340895
- Run 2 1uM 1 (USP7 [4]; [6]): 8601953
- Run 2 1uM 2 (USP7 [4]; [6]): 7625246
- Run 2 1uM 3 (USP7 [4]; [6]): 8414168
- Run 1 10uM 1 (USP7 [4]; [7]): 7727617
- Run 1 10uM 2 (USP7 [4]; [7]): 7625585
- Run 2 10uM 1 (USP7 [4]; [7]): 7739438
- Run 2 10uM 2 (USP7 [4]; [7]): 7761626
- AVE 100nM 1 (USP7 [4]; [8]): 31767914
- AVE 100nM 2 (USP7 [4]; [8]): 30184813
- AVE 100nM 3 (USP7 [4]; [8]): 32152896
- AVE 1uM 1 (USP7 [4]; [9]): 8632962
- AVE 1uM 2 (USP7 [4]; [9]): 7609421
- AVE 1uM 3 (USP7 [4]; [9]): 8377532
- AVE 10uM 1 (USP7 [4]; [10]): 7733528
- AVE 10uM 2 (USP7 [4]; [10]): 7693606
- transcription of p53 target genes (CDKN1A, GADD45A, BAX, DDB2) (p53 target genes): stimulating transcription of p53 target genes

— publication PMC7093416, “Selective USP7 inhibition elicits cancer cell killing through a p53-dependent mechanism” (Scientific Reports, 2020)
